We go through four compounds from patent US9040727B2, “Histone deacetylase inhibitor of benzamides and use thereof” (Shanghai Institute of Pharmaceutical Industry, priority 2011, dated 2015).

Structures are written as SMILES. Read-outs that look alike come from different tables or passages of the source.

One data set has as its system HDACs. Put plainly: In vitro inhibition of HDACs (HDAC Inhibitor Drug Screening Kit). In kind it is biochemical. The method, then: The test was conducted according to the instructions in the HDAC Inhibitor Drug Screening Kit (Biovision/Catalog #50051, BPS).
(§1) Each dilution sample was placed in two wells and the enzyme inhibition IC50 of the compound was tested.

For data set [1], the system named is Jurkat E6-1 human T-cell lymphoma. Put plainly: In vitro anti-proliferative effect, CCK-8 method. It is filed as cell-based. As to the method:
(§2) The inhibitory activities of the compounds towards Hut78 T lymphocytic leukemia cells, Jurkat E6-1 human T-cell lymphoma, A549 human lung cancer cells, K562 human chronic myelogenous leukemia cells, Hep3B2.1-7 human liver cancer cells, MDA-MB-435s human breast cancer cells, Colo320 human rectal cancer cell line, and PC-3 human prostate cancer were determined. The inhibition percentages as represented by IC50 values were obtained through CCK-8 method.

Data set [2] concerns Hut78 T lymphocytic leukemia cells. Kind of data set: In vitro anti-proliferative effect, CCK-8 method. It is filed as cell-based. The method, then: as §2
In general terms: Formazan colour is commonly taken as a measure of viable cells.

The subject of data set [3] is MDA-MB-435s human breast cancer cells. Kind of data set: In vitro anti-proliferative effect, CCK-8 method. It is filed as cell-based. As to the method:
as §2

In data set [4] the test system is Colo320 human rectal cancer cell line. Put plainly: In vitro anti-proliferative effect, CCK-8 method. In kind it is cell-based. The method, then:
as §2

The test system of data set [5] is A549 human lung cancer cells. Kind of data set: In vitro anti-proliferative effect, CCK-8 method. In kind it is cell-based. As to the method: as §2
For data set [6], the system named is PC-3 human prostate cancer. Put plainly: In vitro anti-proliferative effect, CCK-8 method. It is filed as cell-based. The method, then:
as §2

For data set [7], the system named is Hep3B2.1-7 human liver cancer cells. Put plainly: In vitro anti-proliferative effect, CCK-8 method. It is filed as cell-based. The note with it: Hep3B. The method, then:
as §2

In the next data set the target is HDAC1 (Homo sapiens (Human), UniProt Q13547). Put plainly: In vitro inhibitory activity towards HDAC1 (HDAC Inhibitor Drug Screening Kit). In kind it is biochemical. The note with it: for inhibitory activity against HDAC1 compared with MS-275 (by IC50): comparison with MS-275; for inhibition at 1 µM: compound at 1 μM; for inhibition at 10 µM: compound at 10 μM. As to the method: (1) The compounds to be tested were each individually prepared as 10 μM and 1 μM solutions and their inhibitory activities towards HDAC1 at these concentrations were tested.
Sequence of HDAC1 (Q13547 whole entry): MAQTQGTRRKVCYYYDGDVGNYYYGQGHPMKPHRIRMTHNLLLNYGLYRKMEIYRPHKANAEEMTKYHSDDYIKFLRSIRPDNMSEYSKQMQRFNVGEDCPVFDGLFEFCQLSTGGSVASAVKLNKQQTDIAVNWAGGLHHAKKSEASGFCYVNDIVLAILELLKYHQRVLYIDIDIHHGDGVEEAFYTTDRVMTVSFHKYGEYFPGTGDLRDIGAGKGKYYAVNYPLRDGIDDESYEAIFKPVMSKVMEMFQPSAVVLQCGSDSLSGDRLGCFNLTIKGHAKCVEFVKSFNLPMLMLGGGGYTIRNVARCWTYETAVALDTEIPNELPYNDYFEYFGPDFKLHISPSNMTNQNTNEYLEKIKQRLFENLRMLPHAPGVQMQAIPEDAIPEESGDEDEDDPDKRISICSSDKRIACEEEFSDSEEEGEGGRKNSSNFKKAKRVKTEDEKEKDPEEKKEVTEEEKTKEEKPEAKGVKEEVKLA
as §1

Data set [8] concerns K562 human chronic myelogenous leukemia cells. Kind of data set: In vitro anti-proliferative effect, CCK-8 method. It is filed as cell-based. The method, then: as §2
The nature of data set [9]: Preliminary pharmacokinetic experiment. Conditions: in vivo, rat.
A further data set has as its target hERG potassium channel (Homo sapiens (Human), UniProt Q12809). Kind of data set: Effects on hERG potassium channel. In kind it is cell-based. Conditions: for inhibition at 10 µM: human, hERG potassium current, read-out: Maximum inhibition percentage at 10 μM; for IC50: read-out: Half inhibition concentration for the effect on hERG potassium current IC50. (Block of hERG is tested as a sign of cardiac risk.)

The subject of data set [10] is multiple strains of tumor cells. Kind of data set: In vitro inhibition of proliferation of tumor cell strains (overall comparison). It is filed as cell-based. The note with it: comparison with MS-275. The method, then:
as §2

[11] abbreviates: iv, 2 mg/kg, i.v., read-out: Intravenous half-life (converted).
Where [12] appears, read: oral, read-out: Oral half-life (converted).

Sequence of hERG potassium channel (Q12809 whole entry): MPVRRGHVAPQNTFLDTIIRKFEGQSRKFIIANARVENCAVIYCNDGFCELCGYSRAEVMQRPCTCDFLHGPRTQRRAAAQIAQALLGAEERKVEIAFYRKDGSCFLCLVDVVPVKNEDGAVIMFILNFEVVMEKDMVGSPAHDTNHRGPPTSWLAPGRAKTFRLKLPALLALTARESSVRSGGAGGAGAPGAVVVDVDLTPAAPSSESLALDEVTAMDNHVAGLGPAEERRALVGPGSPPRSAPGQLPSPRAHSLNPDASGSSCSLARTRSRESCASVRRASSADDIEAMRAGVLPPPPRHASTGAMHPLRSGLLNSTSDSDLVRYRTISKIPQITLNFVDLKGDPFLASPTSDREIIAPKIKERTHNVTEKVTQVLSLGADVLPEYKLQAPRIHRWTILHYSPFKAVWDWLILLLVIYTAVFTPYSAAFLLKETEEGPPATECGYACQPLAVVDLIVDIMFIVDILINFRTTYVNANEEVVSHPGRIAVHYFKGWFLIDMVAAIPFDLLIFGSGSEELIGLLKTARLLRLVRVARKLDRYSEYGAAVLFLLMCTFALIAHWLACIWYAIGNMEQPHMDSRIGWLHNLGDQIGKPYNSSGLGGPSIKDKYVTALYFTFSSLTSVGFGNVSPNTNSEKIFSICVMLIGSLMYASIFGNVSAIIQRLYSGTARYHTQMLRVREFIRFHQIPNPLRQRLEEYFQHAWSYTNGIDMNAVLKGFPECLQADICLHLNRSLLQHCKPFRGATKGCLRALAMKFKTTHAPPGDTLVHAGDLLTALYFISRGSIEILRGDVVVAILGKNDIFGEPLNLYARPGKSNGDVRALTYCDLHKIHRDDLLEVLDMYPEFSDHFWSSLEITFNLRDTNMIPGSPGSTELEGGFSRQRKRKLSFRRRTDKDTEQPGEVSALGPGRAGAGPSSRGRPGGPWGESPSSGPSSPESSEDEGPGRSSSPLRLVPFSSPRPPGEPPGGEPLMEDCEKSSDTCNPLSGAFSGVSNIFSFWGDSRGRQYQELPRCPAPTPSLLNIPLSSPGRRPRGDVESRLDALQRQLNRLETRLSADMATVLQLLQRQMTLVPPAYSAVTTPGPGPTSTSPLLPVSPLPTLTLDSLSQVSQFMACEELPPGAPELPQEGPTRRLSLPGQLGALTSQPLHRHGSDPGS

Regarding `Nc1ccccc1NC(=O)c1ccc(CNC(=O)OCc2cccnc2)cc1` [MS-275, reference compound], the IC50 in the data set with HDACs was determined as 3.52 µM; in [1], 0.561 µM; in data set [2] (Hut78) it was 0.528 µM; in data set [3], 2.71 µM; in data set [4], 0.522 µM; in data set [5], 2.28 µM. Further, the IC50 was 0.502 µM in [6] and 6.82 µM in data set [7].

Turning to `Nc1ccccc1NC(=O)c1ccc(CNC(=O)c2cc3ccccc3[nH]2)cc1` [Compound V-5], the “inhibitory activity against HDAC1 compared with MS-275 (by IC50)” value on HDAC1 is reported as “better inhibitory activities against HDAC1 as compared with MS-275”. For the same compound, the inhibition at 1 µM at HDAC1 was 59.6%. The inhibition at 10 µM is 81.1% against HDAC1 and 11.5 ± 0.8% at hERG potassium channel. For the same compound, the IC50 came to 0.179 µM in [1] (Homo sapiens); 0.0194 µM in data set [2] (Homo sapiens, HuT78); 1.31 µM in data set [8]; 2.45 µM in data set [4] (Homo sapiens, COLO 320); 2.64 µM in [5] (Homo sapiens); 0.242 µM in data set [6] (Homo sapiens). Also, the IC50 in [7] (Homo sapiens) is 3.46 µM; at hERG potassium channel it was greater than 10 µM. For the same compound, the half-life was 1.27 h in data set [9] (setting [11]) and 3.7 h in data set [9] (setting [12]). This compound yielded a bioavailability in data set [9] (oral) of 7.84%.

Regarding `Nc1cnccc1NC(=O)c1ccc(CNC(=O)c2cc3ccccc3[nH]2)cc1` [Compound V-6], the “inhibition rate for tumor cells compared with MS-275” value in [10] was “higher inhibition rate for multiple strains of tumor cells as compared with MS-275”. Also, the IC50 stood at 0.344 µM against HDAC1; 7.79 µM in the data set with HDACs; 0.128 µM in data set [1] (Homo sapiens); 0.0088 µM in [2] (Homo sapiens, HuT78); 2.09 µM in [8]; 3.13 µM in data set [4] (Homo sapiens, COLO 320). The IC50 in data set [5] (Homo sapiens) was 1.25 µM; in [6] (Homo sapiens), 0.37 µM; in [7] (Homo sapiens), 3.07 µM. The “inhibitory activity against HDAC1 compared with MS-275 (by IC50)” value against HDAC1 is “better inhibitory activities against HDAC1 as compared with MS-275”. At HDAC1, 1 µM produced 68.5% inhibition. This compound had an inhibition at 10 µM on HDAC1 of 74.5%.

With `Nc1ccc(F)cc1NC(=O)c1ccc(CNC(=O)c2cc3ccccc3o2)cc1` [Compound V-9], at HDAC1, the “inhibitory activity against HDAC1 compared with MS-275 (by IC50)” value is given as “better inhibitory activities against HDAC1 as compared with MS-275”. This compound registered an inhibition at 1 µM on HDAC1 of 37.9%. For the same compound, the inhibition at 10 µM on HDAC1 turned out to be 69.1%; at hERG potassium channel, 19.9 ± 6.7%. In addition, the IC50 turned out to be 2.13 µM in [1] (Homo sapiens); 3.46 µM in [2] (Homo sapiens, HuT78); 14.8 µM in [3] (Homo sapiens); 17.1 µM in data set [8]; 21.2 µM in data set [5] (Homo sapiens); 2.24 µM in [6] (Homo sapiens). The IC50 in data set [7] (Homo sapiens) is 15.9 µM; at hERG potassium channel, greater than 10 µM. The half-life is 0.95 h in data set [9] (setting [11]) and 6.37 h in [9] (setting [12]). Also, the bioavailability in data set [9] (oral) was 28.8%.

By inhibition is commonly meant the change of the read-out against control, counted positive when it falls. The half-life is how long it takes for the measured level to halve. What is called bioavailability is the share of a dose that reaches the circulation, judged against a reference dose that is usually intravenous.
